Experimental data as given in patent US20250221964A1, “Substituted Isoxazoles as Selective Nav1.7 Inhibitors for Pain Treatment and Method of Pain Treatment” (Board of Regents, The University of Texas System, priority 2021, published 2025).
pIC50: −log10 of the molar value. Like-named read-outs stand apart in the source and are kept apart here.

Assays:
[1] = test system: muscarinic receptors in the rat cerebral cortex; conditions: cited from earlier work
[2] = target: hNav1.7 (Homo sapiens, UniProt Q15858); experiment: Nav1.7 in vitro inhibition assay; assay type: cell-based; conditions: for subtype selectivity (Nav1.7 vs. Nav1.5): in words
Sequence of hNav1.7 (Q15858 whole entry): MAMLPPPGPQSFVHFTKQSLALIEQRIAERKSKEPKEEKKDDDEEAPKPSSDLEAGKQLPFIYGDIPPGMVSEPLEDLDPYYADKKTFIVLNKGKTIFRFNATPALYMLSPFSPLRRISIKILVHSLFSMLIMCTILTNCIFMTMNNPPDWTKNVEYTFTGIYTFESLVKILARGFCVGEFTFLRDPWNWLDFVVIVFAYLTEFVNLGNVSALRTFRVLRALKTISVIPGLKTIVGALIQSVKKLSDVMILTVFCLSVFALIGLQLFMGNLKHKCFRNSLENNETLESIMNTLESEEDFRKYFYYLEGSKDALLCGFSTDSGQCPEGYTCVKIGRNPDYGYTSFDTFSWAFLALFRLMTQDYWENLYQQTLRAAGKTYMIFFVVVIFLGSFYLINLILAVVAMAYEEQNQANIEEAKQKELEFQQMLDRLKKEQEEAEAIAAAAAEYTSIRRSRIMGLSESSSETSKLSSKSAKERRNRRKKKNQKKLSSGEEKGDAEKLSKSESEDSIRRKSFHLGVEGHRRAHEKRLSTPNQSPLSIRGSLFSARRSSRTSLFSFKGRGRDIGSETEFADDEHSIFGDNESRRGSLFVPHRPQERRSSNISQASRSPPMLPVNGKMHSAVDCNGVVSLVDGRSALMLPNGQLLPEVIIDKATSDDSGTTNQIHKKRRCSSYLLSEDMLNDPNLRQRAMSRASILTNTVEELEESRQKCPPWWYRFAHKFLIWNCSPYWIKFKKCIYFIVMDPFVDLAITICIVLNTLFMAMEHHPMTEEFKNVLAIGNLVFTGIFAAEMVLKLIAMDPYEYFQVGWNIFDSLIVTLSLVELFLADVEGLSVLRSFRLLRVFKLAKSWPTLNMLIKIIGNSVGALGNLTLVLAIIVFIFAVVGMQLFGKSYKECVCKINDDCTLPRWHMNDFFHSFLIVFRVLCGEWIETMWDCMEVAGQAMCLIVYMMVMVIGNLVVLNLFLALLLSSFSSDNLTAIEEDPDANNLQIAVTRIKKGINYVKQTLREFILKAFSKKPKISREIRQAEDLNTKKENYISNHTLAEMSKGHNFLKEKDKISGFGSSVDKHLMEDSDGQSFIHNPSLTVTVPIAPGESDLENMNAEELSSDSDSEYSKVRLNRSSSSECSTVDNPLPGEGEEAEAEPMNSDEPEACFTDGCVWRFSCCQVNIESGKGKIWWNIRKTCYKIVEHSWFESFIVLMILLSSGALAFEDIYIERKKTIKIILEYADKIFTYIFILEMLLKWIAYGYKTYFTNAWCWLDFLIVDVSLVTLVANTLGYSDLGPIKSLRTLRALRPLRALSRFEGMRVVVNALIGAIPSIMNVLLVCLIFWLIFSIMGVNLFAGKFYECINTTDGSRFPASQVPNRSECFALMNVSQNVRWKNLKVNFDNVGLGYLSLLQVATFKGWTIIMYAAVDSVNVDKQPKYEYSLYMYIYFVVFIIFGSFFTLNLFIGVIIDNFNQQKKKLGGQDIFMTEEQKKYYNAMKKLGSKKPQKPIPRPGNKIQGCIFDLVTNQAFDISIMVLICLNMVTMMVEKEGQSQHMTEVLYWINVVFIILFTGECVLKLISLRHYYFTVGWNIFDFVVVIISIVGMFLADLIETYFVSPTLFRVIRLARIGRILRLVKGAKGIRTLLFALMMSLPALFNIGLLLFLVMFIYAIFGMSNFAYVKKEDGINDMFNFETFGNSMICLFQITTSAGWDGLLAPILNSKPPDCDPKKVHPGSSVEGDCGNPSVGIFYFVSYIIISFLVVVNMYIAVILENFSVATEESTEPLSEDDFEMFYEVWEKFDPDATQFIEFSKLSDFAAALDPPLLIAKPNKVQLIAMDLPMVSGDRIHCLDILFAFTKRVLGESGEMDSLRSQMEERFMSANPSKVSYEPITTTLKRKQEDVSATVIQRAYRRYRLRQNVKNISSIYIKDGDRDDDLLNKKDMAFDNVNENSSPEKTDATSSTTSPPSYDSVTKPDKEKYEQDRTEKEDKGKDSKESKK

[3] = target: hNav1.5 (Homo sapiens, UniProt Q14524); experiment: Nav1.5 in vitro inhibition assay; assay type: cell-based; conditions: in vitro testing
Sequence of hNav1.5 (Q14524 whole entry): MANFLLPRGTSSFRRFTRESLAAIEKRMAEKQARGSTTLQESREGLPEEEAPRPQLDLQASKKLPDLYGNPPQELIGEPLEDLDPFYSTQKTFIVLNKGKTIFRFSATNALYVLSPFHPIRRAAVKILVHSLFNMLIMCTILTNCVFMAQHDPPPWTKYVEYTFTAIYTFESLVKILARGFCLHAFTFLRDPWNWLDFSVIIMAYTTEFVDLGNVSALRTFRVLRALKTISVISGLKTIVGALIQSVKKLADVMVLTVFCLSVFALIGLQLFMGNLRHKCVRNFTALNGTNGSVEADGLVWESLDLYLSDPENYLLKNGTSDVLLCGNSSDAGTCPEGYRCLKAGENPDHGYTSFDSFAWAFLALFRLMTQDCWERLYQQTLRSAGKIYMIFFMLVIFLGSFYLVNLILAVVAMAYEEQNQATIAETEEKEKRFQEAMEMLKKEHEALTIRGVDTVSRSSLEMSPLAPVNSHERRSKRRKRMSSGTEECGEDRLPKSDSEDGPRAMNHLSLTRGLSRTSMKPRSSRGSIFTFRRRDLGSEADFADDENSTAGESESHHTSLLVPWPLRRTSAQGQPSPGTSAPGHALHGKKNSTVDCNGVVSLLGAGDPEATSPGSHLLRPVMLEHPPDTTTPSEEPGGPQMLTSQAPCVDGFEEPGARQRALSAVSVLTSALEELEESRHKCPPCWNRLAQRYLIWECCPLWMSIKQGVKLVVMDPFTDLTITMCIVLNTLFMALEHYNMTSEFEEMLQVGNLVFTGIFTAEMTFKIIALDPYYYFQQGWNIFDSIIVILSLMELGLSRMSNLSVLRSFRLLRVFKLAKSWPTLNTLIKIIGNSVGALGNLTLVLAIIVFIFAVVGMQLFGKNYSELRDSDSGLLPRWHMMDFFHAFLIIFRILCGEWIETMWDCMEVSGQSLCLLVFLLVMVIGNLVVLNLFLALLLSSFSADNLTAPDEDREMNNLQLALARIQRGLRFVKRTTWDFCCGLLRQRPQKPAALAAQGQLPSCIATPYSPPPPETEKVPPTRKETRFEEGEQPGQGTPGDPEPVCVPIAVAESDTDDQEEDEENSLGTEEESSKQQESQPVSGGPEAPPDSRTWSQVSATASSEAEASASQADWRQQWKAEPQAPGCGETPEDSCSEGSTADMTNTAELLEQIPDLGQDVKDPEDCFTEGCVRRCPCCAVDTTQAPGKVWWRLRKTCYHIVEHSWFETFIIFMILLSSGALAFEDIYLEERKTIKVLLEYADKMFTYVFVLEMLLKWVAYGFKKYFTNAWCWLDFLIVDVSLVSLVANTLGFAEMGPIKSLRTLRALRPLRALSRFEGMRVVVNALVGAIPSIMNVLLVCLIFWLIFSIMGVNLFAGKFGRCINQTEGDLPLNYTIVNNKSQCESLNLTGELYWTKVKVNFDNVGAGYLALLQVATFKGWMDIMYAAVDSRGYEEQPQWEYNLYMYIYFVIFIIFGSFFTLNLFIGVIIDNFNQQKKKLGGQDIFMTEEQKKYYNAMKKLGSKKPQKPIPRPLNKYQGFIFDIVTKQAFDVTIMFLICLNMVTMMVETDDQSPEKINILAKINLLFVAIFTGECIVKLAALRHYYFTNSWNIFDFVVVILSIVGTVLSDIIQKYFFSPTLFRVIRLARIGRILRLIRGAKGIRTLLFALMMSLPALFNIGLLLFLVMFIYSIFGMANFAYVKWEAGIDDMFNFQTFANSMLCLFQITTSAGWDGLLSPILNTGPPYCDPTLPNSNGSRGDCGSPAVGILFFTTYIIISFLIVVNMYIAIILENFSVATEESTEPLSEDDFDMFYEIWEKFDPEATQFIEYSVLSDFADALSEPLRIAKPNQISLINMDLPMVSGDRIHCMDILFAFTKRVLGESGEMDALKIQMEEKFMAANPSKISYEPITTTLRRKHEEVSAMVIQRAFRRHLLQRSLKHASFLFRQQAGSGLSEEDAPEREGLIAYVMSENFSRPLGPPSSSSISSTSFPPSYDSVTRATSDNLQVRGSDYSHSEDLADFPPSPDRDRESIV

[4] = test system: mouse automated formalin model; experiment: mouse automated formalin test; assay type: in vivo; conditions: 135 mg/kg p.o.
Description: (§1) Compound 100 was administered using the mouse automated formalin model at a dosage of 135 mg/kg p.o. Dosage was selected based upon projection from mouse exposure at 5 mg/kg.

[5] = mouse exposure / pharmacokinetics in formalin study (plasma, brain); assay type: in vivo; conditions: for concentration at 0.25 hr: pre-tx time 0.25 hr, unbound
Description: as §1

[6] = ADME assays (solubility, CYP inhibition, in vitro metabolism); conditions: in words
[7] = in vitro testing, read-out: potency against Nav1.7
[8] = 135 mg/kg p.o., 0.25 hr, versus FI IC50
[9] = 135 mg/kg p.o., 0.25 hr, versus SI IC50

Q: With `Cc1scc2c1N(C(=O)CN1CCN(C)CC1)c1ccccc1NC2=O` [(−)-isomer, telenzepine] as the compound, how does the “fold less active than the (+)-isomer” value [1] read?
A: The value was 500 ×.

Q: What does the source list for `CC(C)(CO)CCCNC(=O)c1noc(-c2ccccc2)c1-c1ccccc1` [Compound 106]?
A: pIC50 [2, 7]: 7.22; subtype selectivity (Nav1.7 vs. Nav1.5) [2]: remained poor; pIC50 ([3]; read-out: Nav1.5 IC50): 6.74

Q: With `CC(C)(CO)CCCNC(=O)c1cc(-c2ccccc2)on1` [Compound 100] as the compound, how does the pIC50 ([2]; FI, read-out: h1.7 IC50 (FI)) read?
A: Its pIC50 is 5.69.

Q: And the pIC50 [2, 7]?
A: Its pIC50 is 6.24.

Q: What about the “subtype selectivity (Nav1.7 vs. Nav1.5)” value [2] of the same compound?
A: The value was “poor selectivity”.

Q: And the “reduction in late-phase pain-induced reactions” value [4]?
A: Its value is 31.4%.

Q: What about the “Percent Reversal in Late Phase Formalin” value ([4]; pre-tx time 0.25 hr) of the same compound?
A: The value was 31.4 ± 5.1%.

Q: What about the “Brain TER (FI)” value [5, 8] of the same compound?
A: Its value is 0.2 (FI).

Q: And the “Plasma TER (FI)” value [5, 8]?
A: The value was 0.1 (FI).

Q: And the “Brain TER (SI)” value [5, 9]?
A: The value was 1.8 (SI).

Q: And the “Plasma TER (SI)” value [5, 9]?
A: Its value is 1.2 (SI).

Q: And the concentration at 0.25 hr ([5]; brain, po, mouse, 135 mg/kg p.o., read-out: Mean Brain, u)?
A: Its concentration at 0.25 hr is 414 nM.

Q: What about the Tmax ([5]; in vivo, po, mouse) of the same compound?
A: The Tmax was 15 min.

Q: What about the half-life ([5]; in vivo, po, mouse) of the same compound?
A: Its half-life is 66 min.

Q: And the concentration at 0.25 hr ([5]; plasma, po, mouse, 135 mg/kg p.o., read-out: Mean plasma, u)?
A: The concentration at 0.25 hr was 282 nM.

Q: What about the pIC50 ([3]; read-out: Nav1.5 potency) of the same compound?
A: The pIC50 was 5.72.

Q: And the “compound profiling in ADME assays” value [6]?
A: The value was “promising”.

Q: Which “subtype selectivity (Nav1.7 vs. Nav1.5)” value [2] does the source give for `CN(CCCC(C)(C)CO)C(=O)c1cc(-c2ccccc2)on1` [Compound 119] here?
A: The value was “improved”.

Q: Which “subtype selectivity (Nav1.7 vs. Nav1.5)” value [2] does the source give for `Cc1ccc(F)cc1-c1c(C(=O)NCCCC(C)(C)CO)noc1-c1ccccc1` [Compound 130] here?
A: Its value is “improved”.
